# Assay results from patent publication US9988632B2, “Composition including pint gene expression inhibitor or pint activity inhibitor and use thereof” (Samsung Electronics Co., Ltd., priority 2015, dated 2018).
# Key:
# Type in all cases: cell-based, human
# PINT lincRNA = PINT lincRNA levels (qPCR) in young cells in the presence of DNA damage inducers; conditions: 10 μM, 24 hours, level in absence of DNA damage inducers taken as 1
# Description: PINT lincRNA levels were measured according to DNA damage in cells. The cells were young cells HDF(M4) and HDF(neonatal) derived from humans, explained in section 1.
# As a negative control, the cells were treated with dimethyl sulfoxide (DMSO) (Sigma-Aldrich). Thereafter, mRNAs were isolated from all the cells, and then quantitative polymerase chain reaction (qPCR) was performed using nucleotide sequences of SEQ ID NOS: 22 and 24 as PINT primers to measure PINT levels.
# PINT = PINT level (qPCR) after siRNA transfection; conditions: HDF(neonatal) cells, 25 nM siRNA, 72 hours, vs scramble siRNA
# Text: In detail, the young cells were human dermal fibroblast (HDF) (hereinafter, referred to as ‘HDF cell’ or ‘HDF (neonatal)’) obtained from neonatal foreskin, human dermal fibroblast (HDF) M4 cell (hereinafter, referred to as ‘HDF M4 cell’ or ‘HDF (M4)’) obtained from the foreskin of a child, and human mammary epithelial cell (HMEC) (hereinafter, referred to as ‘HMEC cell’ or ‘HMEC’) obtained from ATCC® PCS-600-010™. The young cells for the purposes of the experiments were cells of the above cell lines that were passaged 10 times or less and have a doubling time of about 1 day. The senescent cells were cells of the same cell lines that were passaged 33 to 50 times and have a doubling time of about 14 days or longer. The young cells and senescent cells were inoculated in 6-well plates at a density of 50,000 cells/well and 20,000 cells/well, respectively. The inoculated cells were cultured in 2 ml of a DMEM medium containing 10% (v/v) FBS, and 1× penicillin/streptomycin and high concentrations of glucose, glutamine, and pyruvate under conditions of 37° C. and 5% CO2 for 3 days.
# mRNAs were isolated from all the cells thus prepared, and then quantitative polymerase chain reaction (qPCR) was performed using nucleotide sequences of SEQ ID NOS: 22 and 23 as PINT primers to measure PINT levels.
# To inhibit PINT gene expression and/or PINT activity, the following 5 siRNAs including sequences complementary to PINT gene of SEQ ID NO: 1 were designed and synthesized (Cosmogenetech, Korea).
# The siRNAs includes nucleotide sequences of SEQ ID NO: 12 and SEQ ID NO: 13; SEQ ID NO: 14 and SEQ ID NO: 15; SEQ ID NO: 16 and SEQ ID NO: 17; SEQ ID NO: 18 and SEQ ID NO: 19; and SEQ ID NO: 20 and SEQ ID NO: 21, respectively and hereinbelow, these siRNAs are called siPINT-1, siPINT-2, siPINT-3, siPINT-4, and siPINT-5, respectively.
# It was examined whether the siRNAs decrease PINT levels in senescent cells. First, HDF(neonatal) young cells being passaged 9 times and having a doubling time of 1 day and HDF(neonatal) senescent cells being passaged 49 times and having a doubling time of 14 days, which were prepared in section 1, were transfected with 25 nM siRNA. The cells were cultured for 72 hours under the same conditions as in section 1, except that each siRNA was mixed with 1 μL of a Dharmacon transfection reagent (Dharmacon), and added to media. A negative control group was prepared in the same manner, except that scramble siRNA was added instead of the siRNAs. After culturing, PINT levels in the cells were measured in the same manner as in section 1. As a result, when siPINT-1, siPINT-2, siPINT-3, siPINT-4, and siPINT-5 were used, the PINT levels were decreased by 36, 0, 67, 50, and 0%, respectively, as compared to the control group.
# [1] = system: HDF(neonatal) senescent cells; assay: Immunoblotting of phosphorylated H2AX (gamma-H2AX) in siRNA-introduced cells; conditions: HDF(neonatal) senescent cells vs young cells, 25 nM siRNA, 72 hours
# Description: (§1) HDF(neonatal) young cells being passaged 9 times and having a doubling time of 1 day and HDF(neonatal) senescent cells being passaged 49 times and having a doubling time of 14 days, which were prepared in section 1, were cultured for 72 hours under the same conditions as in section 1, except that each 25 nM of siPINT-3 and siPINT-4 was mixed with 1 μL of a Dharmacon transfection reagent (Dharmacon) and added to media. A negative control group was prepared in the same manner, except that scramble siRNA (hereinafter, also called ‘siCTRL’) was added instead of the siRNAs.
# After culturing, proteins were isolated from siRNA-introduced cells, and then the isolated proteins were subjected to immunoblotting using anti-GAPDH and anti-phosphorylated-H2AX. H2AX becomes phosphorylated on serine 139 as a reaction on DNA Double-strand breaks (DSB), and is also called gamma-H2AX. Gamma-H2AX is an indicator of DNA damage.
# [2] = system: HDF(neonatal) senescent cells; assay: DNA comet assay in siRNA-introduced cells; conditions: 25 nM siRNA, 72 hours; for tail moment: control senescent cells 2.86, young cells 0.52
# Description: as §1
# Further, DNAs were isolated from the same cells, followed by DNA comet assay. This method is performed by detecting DNA strand break in cells, based on gel electrophoresis. […] After staining a slide with SYBR Green, a length of a tail of DNA fragment was measured under a fluorescence microscope to examine DNA damage.
# [3] = system: HDF(neonatal) young and senescent cells; assay: Selective death of senescent cells by inhibition of PINT expression (cell number after culturing); conditions: siRNA transfection, cultured 14 days
# Description: HDF(neonatal) young cells being passaged 9 times and having a doubling time of 1 day and HDF(neonatal) senescent cells being passaged 49 times and having a doubling time of 14 days, which were prepared in section 1, were transfected with each of siPINT-1, siPINT-2, siPINT-3, siPINT-4, and siPINT-5 in the same manner as in section 3.2, and further cultured in wells of 6-well plates for 14 days under the same conditions as in section 1. A negative control group was prepared in the same manner, except that scramble siRNA (hereinafter, also called ‘siCTR’) was added instead of the siRNAs.
# In FIG. 5, siCTR represents control siRNA, and siPINT represents siPINT-3 among the five used siPINTs. […] However, there was little change in the number of young cells by inhibition of PINT lincRNA expression.
Compound,PINT levels decreased as compared to the control group (PINT) [%],gamma-H2AX levels (indicator of DNA damage) [1],tail moment [2],also measured
C[C@@]1(CO)[C@H](O)CC[C@@]2(C)[C@H]1CC[C@H]1C[C@@H]3C[C@@]12CC[C@]3(O)CO [aphidicolin],–,–,–,relative PINT level (PINT lincRNA; HDF(M4) young cells): 1.95; relative PINT level (PINT lincRNA; HDF(neonatal) young cells): 2.72
"siPINT-1: siRNA complementary to PINT gene, nucleotide sequences of SEQ ID NO: 12 and SEQ ID NO: 13 (chain 1 AAGAAAUACGCAGAACUGAUUCCUG; chain 2 CAGGAAUCAGUUCUGCGUAUUUCUU; listed as RNA, chemistry not given here)",36,–,–,–
"siPINT-2: siRNA complementary to PINT gene, nucleotide sequences of SEQ ID NO: 14 and SEQ ID NO: 15 (chain 1 UGGGAUAAUUUGCCAUCUGGAGUUU; chain 2 AAACUCCAGAUGGCAAAUUAUCCCA; listed as RNA, chemistry not given here)",0,–,–,–
"siPINT-3: siRNA complementary to PINT gene, nucleotide sequences of SEQ ID NO: 16 and SEQ ID NO: 17 (chain 1 AUGUAUCAAAUGCCUGGUUCUAUUU; chain 2 AAAUAGAACCAGGCAUUUGAUACAU; listed as RNA, chemistry not given here)",67,specifically increased,3.68,"DNA damage (comet tails, photograph) compared to senescent cells without siPINT introduction [2]: remarkably increased DNA damage; number of senescent cells compared to the negative control group ([3]; HDF(neonatal) senescent cells): remarkably decreased; change in the number of young cells ([3]; HDF(neonatal) young cells): little change"
"siPINT-4: siRNA complementary to PINT gene, nucleotide sequences of SEQ ID NO: 18 and SEQ ID NO: 19 (chain 1 AAGUAGGAGCCACGAAAUGUCAUUU; chain 2 AAAUGACAUUUCGUGGCUCCUACUU; listed as RNA, chemistry not given here)",50,specifically increased,5.58,–
"siPINT-5: siRNA complementary to PINT gene, nucleotide sequences of SEQ ID NO: 20 and SEQ ID NO: 21 (chain 1 AGCCAGGAAGAGGGACUGGAACCAU; chain 2 AUGGUUCCAGUCCCUCUUCCUGGCU; listed as RNA, chemistry not given here)",0,–,–,–
